In ChEMBL document CHEMBL2331140, “A novel series of tacrine-selegiline hybrids with cholinesterase and monoamine oxidase inhibition activities for the treatment of Alzheimer's disease” (Eur J Med Chem, 2013) one finds Ratio IC50, IC50 and inhibition data, which are given here for 13 molecules.

Test [1] in a line: Selectivity index, ratio of IC50 for recombinant human MAO-A to IC50 for recombinant human MAO-B.
Test [2] concerns the target T1, Amine oxidase [flavin-containing] A (Homo sapiens, UniProt P21397).
T1 sequence (P21397 whole entry): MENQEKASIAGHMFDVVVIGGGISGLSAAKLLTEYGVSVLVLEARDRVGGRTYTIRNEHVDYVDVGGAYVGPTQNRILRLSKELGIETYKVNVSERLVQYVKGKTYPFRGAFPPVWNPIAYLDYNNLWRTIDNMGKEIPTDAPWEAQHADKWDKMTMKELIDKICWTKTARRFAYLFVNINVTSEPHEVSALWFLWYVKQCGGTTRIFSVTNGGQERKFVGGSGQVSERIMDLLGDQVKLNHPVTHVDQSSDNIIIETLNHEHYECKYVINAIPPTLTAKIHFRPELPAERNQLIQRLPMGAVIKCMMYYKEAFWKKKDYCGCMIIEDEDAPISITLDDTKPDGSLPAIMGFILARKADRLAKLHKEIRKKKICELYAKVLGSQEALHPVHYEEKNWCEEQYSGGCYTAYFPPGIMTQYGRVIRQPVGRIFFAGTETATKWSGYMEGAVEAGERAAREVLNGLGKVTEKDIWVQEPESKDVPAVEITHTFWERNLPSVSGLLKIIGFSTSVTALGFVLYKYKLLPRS
Description: Inhibition of recombinant human MAO-A using p-tyramine substrate preincubated for 15 mins before substrate addition measured after 20 mins by fluorescence assay

For test [3], the target named is T2, Amine oxidase [flavin-containing] B (Homo sapiens, UniProt P27338).
T2 sequence (P27338 whole entry): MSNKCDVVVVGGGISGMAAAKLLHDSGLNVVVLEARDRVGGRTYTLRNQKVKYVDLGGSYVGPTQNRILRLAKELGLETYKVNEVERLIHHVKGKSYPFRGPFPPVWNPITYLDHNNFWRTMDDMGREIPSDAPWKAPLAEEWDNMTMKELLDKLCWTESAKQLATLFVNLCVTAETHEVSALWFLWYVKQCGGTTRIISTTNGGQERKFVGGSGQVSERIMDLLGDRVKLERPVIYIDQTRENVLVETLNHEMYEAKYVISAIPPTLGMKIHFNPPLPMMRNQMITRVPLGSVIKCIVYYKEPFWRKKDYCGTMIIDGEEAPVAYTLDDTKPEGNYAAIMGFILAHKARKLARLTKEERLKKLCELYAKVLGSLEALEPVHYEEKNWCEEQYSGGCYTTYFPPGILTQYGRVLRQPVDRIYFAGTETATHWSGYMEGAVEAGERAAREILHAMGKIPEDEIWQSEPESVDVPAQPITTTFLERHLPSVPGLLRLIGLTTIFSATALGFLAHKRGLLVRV
Description: Inhibition of recombinant human MAO-B using p-benzylamine substrate preincubated for 15 mins before substrate addition measured after 20 mins by fluorescence assay

Another test deals with Acetylcholinesterase (Electrophorus electricus, UniProt O42275).
Chain of Acetylcholinesterase (O42275 whole entry): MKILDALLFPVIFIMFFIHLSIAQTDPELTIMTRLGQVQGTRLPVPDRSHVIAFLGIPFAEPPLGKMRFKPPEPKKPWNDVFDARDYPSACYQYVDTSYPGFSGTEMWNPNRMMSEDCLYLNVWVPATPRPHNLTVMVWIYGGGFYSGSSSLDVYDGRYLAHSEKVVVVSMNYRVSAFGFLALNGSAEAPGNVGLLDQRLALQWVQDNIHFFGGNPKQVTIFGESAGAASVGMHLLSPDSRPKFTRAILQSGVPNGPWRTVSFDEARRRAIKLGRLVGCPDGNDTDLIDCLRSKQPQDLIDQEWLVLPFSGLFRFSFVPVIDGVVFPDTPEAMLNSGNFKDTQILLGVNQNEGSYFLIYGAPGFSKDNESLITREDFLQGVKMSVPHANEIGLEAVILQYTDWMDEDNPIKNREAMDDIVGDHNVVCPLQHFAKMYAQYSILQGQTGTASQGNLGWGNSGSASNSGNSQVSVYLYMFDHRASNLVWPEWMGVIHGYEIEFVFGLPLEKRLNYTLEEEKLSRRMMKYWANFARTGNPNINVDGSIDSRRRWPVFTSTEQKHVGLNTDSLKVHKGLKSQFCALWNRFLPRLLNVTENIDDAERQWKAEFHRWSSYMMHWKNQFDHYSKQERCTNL
For a further test, the target named is Cholinesterase (Equus caballus, UniProt P81908).
Chain of Cholinesterase (P81908 whole entry): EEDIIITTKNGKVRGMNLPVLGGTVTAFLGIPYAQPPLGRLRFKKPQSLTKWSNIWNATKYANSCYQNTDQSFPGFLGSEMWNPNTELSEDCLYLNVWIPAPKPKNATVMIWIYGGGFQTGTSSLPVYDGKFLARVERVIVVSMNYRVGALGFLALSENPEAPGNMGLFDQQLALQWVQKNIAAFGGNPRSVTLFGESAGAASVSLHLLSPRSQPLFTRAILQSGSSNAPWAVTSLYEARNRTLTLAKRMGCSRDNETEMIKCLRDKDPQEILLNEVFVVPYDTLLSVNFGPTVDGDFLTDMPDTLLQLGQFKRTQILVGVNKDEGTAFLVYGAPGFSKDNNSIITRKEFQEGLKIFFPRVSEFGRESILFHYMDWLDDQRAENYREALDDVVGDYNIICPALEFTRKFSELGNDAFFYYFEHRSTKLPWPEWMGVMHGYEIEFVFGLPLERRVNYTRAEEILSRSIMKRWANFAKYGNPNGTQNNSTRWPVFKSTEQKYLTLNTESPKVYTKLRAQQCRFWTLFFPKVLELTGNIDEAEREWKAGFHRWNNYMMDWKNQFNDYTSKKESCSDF
The target of test [4] is T2, Amine oxidase [flavin-containing] B. The following applies: 20 min, read-out: INH.
Test [5] has the same target. As to conditions: read-out: INH.

The term pIC50 denotes −log10 of the IC50, conventionally taken in molar units. Low values mean a high IC50, high ones a low IC50.

SMILES strings stand for the structures. pIC50: −log10 of the molar value.

Description for Acetylcholinesterase: Inhibition of electric eel AChE using acetylthiocholine chloride as substrate after 15 mins by Ellman's method

With `C#CCN(C)[C@H](C)Cc1ccc(OCCCCCCNc2c3c(nc4ccccc24)CCCC3)cc1`, in test [1], the Ratio IC50 was 1.9. The pIC50 in test [2] is 6.40; in test [3] it was 6.68; against Acetylcholinesterase it was 6.86; against Cholinesterase, 7.79.
Taken in the same sequence, the figures for `C#CCN(C)[C@H](C)Cc1ccc(OCCCCCCCCNc2c3c(nc4ccccc24)CCCC3)cc1` were 3.5, 6.23, 6.78, 6.83 and 7.45.
Taken in the same sequence, the figures for `C#CCN(C)[C@H](C)Cc1ccc(OCCNc2c3c(nc4ccccc24)CCCC3)cc1` were 7, 5.31, 6.16, 7.08 and 7.30.
Take `C#CCN(C)[C@H](C)Cc1ccc(OCCCCCNc2c3c(nc4ccccc24)CCCC3)cc1`: in test [1], the Ratio IC50 stood at 0.5. The pIC50 is 5.90 in test [2], 5.62 in test [3], 7.11 against Acetylcholinesterase and 7.63 at Cholinesterase.
For `C#CCN(C)[C@H](C)Cc1ccc(OCCCCCCNc2c3c(nc4cc(Cl)ccc24)CCCC3)cc1` the same measures were 1, 6.28, 6.28, 7.10 and 7.73.
Taken in the same sequence, the figures for `C#CCN(C)[C@H](C)Cc1ccc(OCCCCCCCCNc2c3c(nc4cc(Cl)ccc24)CCCC3)cc1` were 1.5, 6.72, 6.89, 7.26 and 7.75.
For `C#CCN(CCCCCCNc1c2c(nc3ccccc13)CCCC2)[C@H](C)Cc1ccc(OC)cc1` the same measures were 1.9, 4.47, 4.74, 6.34 and 7.54.
For `C#CCN(C)[C@H](C)Cc1ccc(OCCCCCCCCCNc2c3c(nc4ccccc24)CCCC3)cc1`, the pIC50 was 7.65 against Acetylcholinesterase and 8.03 against Cholinesterase. Further, the inhibition at 0.2 µM was 70.8% in test [4] and 81.6% in test [5].
In the case of `C#CCN(C)[C@H](C)Cc1ccc(OCCCNc2c3c(nc4ccccc24)CCCC3)cc1`, the Ratio IC50 in test [1] amounted to 9.7. Further, the pIC50 in test [2] was 4.36; in test [3], 5.35; on Acetylcholinesterase, 7.44; against Cholinesterase, 7.38.
With `C#CCN(C)[C@H](C)Cc1ccc(OCCCCCCCCCCNc2c3c(nc4ccccc24)CCCC3)cc1`, the Ratio IC50 in test [1] is 0.9. For the same molecule, the pIC50 in test [2] was 6.50; in test [3] it was 6.46; against Acetylcholinesterase, 7.63; on Cholinesterase, 8.69.
Taken in the same sequence, the figures for `C#CCN(C)[C@H](C)Cc1ccc(OCCCCCNc2c3c(nc4cc(Cl)ccc24)CCCC3)cc1` were 0.5, 5.54, 5.21, 7.09 and 7.73.
For the molecule `C#CCN(C)[C@H](C)Cc1ccc(OCCCNc2c3c(nc4cc(Cl)ccc24)CCCC3)cc1`, the Ratio IC50 in test [1] is 0.8. Also, the negative-log IC50 (pIC50) in test [2] is 5.04; in test [3] it was 4.96; on Acetylcholinesterase, 7.85; on Cholinesterase, 7.18.
As for `C#CCN(C)[C@H](C)Cc1ccc(OCCCCNc2c3c(nc4ccccc24)CCCC3)cc1`, the Ratio IC50 in test [1] was 0.8. Besides, the pIC50 is 5.15 in test [2], 5.07 in test [3], 7.28 against Acetylcholinesterase and 7.40 against Cholinesterase.
